In ChEMBL document CHEMBL1201862, “PubChem BioAssay data set” (2004):
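How tested: cells in 96-well plates exposed to compound for 48 hours at five concentrations. At the GI50, growth is halved.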 Activity calls are given as the source filed them. Cut-off read from the data, not from the text of the source: active = GI50 up to about 1.1 µM and inactive = higher.

Key:
Assay in all cases: growth of human tumour cells (NCI), 48 h
[1] = test system: SN12C
[2] = test system: U-251
[3] = test system: SR
[4] = test system: BT-549
[5] = test system: MCF7
[6] = test system: HCT-15
[7] = test system: HCC 2998
[8] = test system: HCT-116
[9] = test system: NCI-H23
[10] = test system: CCRF-CEM
[11] = test system: MDA-MB-231
[12] = test system: UACC-257
[13] = test system: MOLT-4
[14] = test system: SK-MEL-5
[15] = test system: KM12
[16] = test system: HT-29
[17] = test system: SF-295
[18] = test system: MDA-N
[19] = test system: A498
[20] = test system: TK-10

`CC(=O)OCC(OC(C)=O)C(OC(C)=O)C(OC(C)=O)C(/C=N\Nc1nc2ccccc2c(=O)[nH]1)OC(C)=O` (configuration not stated) was tested, and the GI50 [1] was > 100 µM (inactive), the GI50 [2] was > 100 µM (inactive) and the GI50 [3] was > 100 µM (inactive). For the same compound, the GI50 [4] was > 100 µM (inactive), the GI50 [5] was > 100 µM (inactive) and the GI50 [6] was > 100 µM. The GI50 [7] was > 100 µM (inactive), the GI50 [8] was > 100 µM (inactive) and the GI50 [9] was > 100 µM (inactive). The GI50 [10] was > 100 µM (inactive), the GI50 [11] was > 100 µM (inactive) and the GI50 [12] was > 100 µM (inactive). For the same compound, the GI50 [13] was > 100 µM (inactive), the GI50 [14] was > 100 µM (inactive) and the GI50 [15] was 23.6 µM (inactive). The GI50 [16] was > 100 µM (inactive), the GI50 [17] was > 100 µM (inactive) and the GI50 [18] was > 100 µM (inactive).

For `CCOC(=O)Nc1c(C#N)[n+]([O-])c2cc(Cl)c(Cl)cc2[n+]1[O-]`, the GI50 [1] was 16.4 µM (inactive), the GI50 [2] was 14.3 µM (inactive) and the GI50 [3] was 4.09 µM (inactive). For the same compound, the GI50 [4] was 15.6 µM (inactive), the GI50 [5] was 16.7 µM (inactive) and the GI50 [6] was 5.13 µM. The GI50 [19] was 7.69 µM (inactive), the GI50 [8] was 14 µM (inactive) and the GI50 [20] was 27.5 µM (inactive). For the same compound, the GI50 [9] was 19.7 µM (inactive), the GI50 [10] was 4.37 µM (inactive) and the GI50 [11] was 15.9 µM (inactive). The GI50 [12] was 16.5 µM (inactive), the GI50 [13] was 8.71 µM (inactive) and the GI50 [14] was 10.5 µM (inactive). For the same compound, the GI50 [15] was 18.2 µM (inactive), the GI50 [16] was 12 µM (inactive) and the GI50 [17] was 14.6 µM (inactive). For the same compound, the GI50 [18] was 16.1 µM (inactive).

In the case of `O=C(NCc1cccs1)OC1CC2CCC1C2` (configuration not stated), the GI50 [1] is reported as > 100 µM (inactive), the GI50 [2] is reported as > 100 µM (inactive) and the GI50 [3] is reported as > 100 µM (inactive). The GI50 [4] was > 100 µM (inactive), the GI50 [5] was > 100 µM (inactive) and the GI50 [6] was > 100 µM. The GI50 [19] was > 100 µM (inactive), the GI50 [8] was > 100 µM (inactive) and the GI50 [20] was > 100 µM (inactive). The GI50 [9] was > 100 µM (inactive), the GI50 [10] was > 100 µM (inactive) and the GI50 [11] was > 100 µM (inactive). For the same compound, the GI50 [12] was > 100 µM (inactive), the GI50 [13] was > 100 µM (inactive) and the GI50 [14] was > 100 µM (inactive). For the same compound, the GI50 [15] was > 100 µM (inactive), the GI50 [16] was > 100 µM (inactive) and the GI50 [17] was > 100 µM (inactive). For the same compound, the GI50 [18] was > 100 µM (inactive).

For `COc1c(Cl)ccc(Cl)c1-c1nnc(-c2c(Cl)c(Cl)c(Cl)c(Cl)c2-c2nc3cc(C(=O)c4ccccc4)ccc3[nH]2)o1`, the GI50 [1] was 64.7 µM (inactive), the GI50 [2] was 61 µM (inactive) and the GI50 [3] was 25.4 µM (inactive). For the same compound, the GI50 [4] was 76.7 µM (inactive), the GI50 [5] was 31.6 µM (inactive) and the GI50 [6] was 35.7 µM. The GI50 [19] was 24.8 µM (inactive), the GI50 [8] was 63.1 µM (inactive) and the GI50 [20] was > 100 µM (inactive). For the same compound, the GI50 [9] was 78.2 µM (inactive), the GI50 [10] was 24.9 µM (inactive) and the GI50 [11] was 43.8 µM (inactive). For the same compound, the GI50 [12] was 82.2 µM (inactive), the GI50 [13] was 26.4 µM (inactive) and the GI50 [14] was 16.6 µM (inactive). For the same compound, the GI50 [15] was 45.5 µM (inactive), the GI50 [16] was 57.8 µM (inactive) and the GI50 [17] was 29.4 µM (inactive). The GI50 [18] was 20 µM (inactive).

With `NC1CSc2ccccc2NC1=O` (configuration not stated) the GI50 [1] was > 100 µM (inactive), the GI50 [2] was > 100 µM (inactive) and the GI50 [3] was > 100 µM (inactive). For the same compound, the GI50 [4] was > 100 µM (inactive), the GI50 [5] was > 100 µM (inactive) and the GI50 [6] was > 100 µM. For the same compound, the GI50 [7] was > 100 µM (inactive), the GI50 [8] was > 100 µM (inactive) and the GI50 [20] was > 100 µM (inactive). The GI50 [9] was > 100 µM (inactive), the GI50 [10] was > 100 µM (inactive) and the GI50 [11] was > 100 µM (inactive). For the same compound, the GI50 [12] was > 100 µM (inactive), the GI50 [13] was > 100 µM (inactive) and the GI50 [14] was > 100 µM (inactive). For the same compound, the GI50 [15] was > 100 µM (inactive), the GI50 [16] was > 100 µM (inactive) and the GI50 [17] was > 100 µM (inactive). The GI50 [18] was > 100 µM (inactive).

`CC12CCC(=O)[C@@]1(C)CCCC2=O` (some centres not stated) was tested, and the GI50 [1] was > 100 µM (inactive), the GI50 [2] was > 100 µM (inactive) and the GI50 [3] was > 100 µM (inactive). The GI50 [4] was > 100 µM (inactive), the GI50 [5] was > 100 µM (inactive) and the GI50 [6] was > 100 µM. For the same compound, the GI50 [7] was > 100 µM (inactive), the GI50 [8] was > 100 µM (inactive) and the GI50 [20] was > 100 µM (inactive). The GI50 [9] was > 100 µM (inactive), the GI50 [10] was > 100 µM (inactive) and the GI50 [11] was > 100 µM (inactive). The GI50 [12] was > 100 µM (inactive), the GI50 [13] was > 100 µM (inactive) and the GI50 [14] was > 10 µM (inactive). For the same compound, the GI50 [15] was > 100 µM (inactive), the GI50 [16] was > 100 µM (inactive) and the GI50 [17] was > 100 µM (inactive). The GI50 [18] was > 100 µM (inactive).

`O=[N+]([O-])c1nccn1CCCNc1c2ccccc2[n+]([O-])c2ccccc12` was tested, and the GI50 [1] was > 100 µM (inactive), the GI50 [2] was > 100 µM (inactive) and the GI50 [3] was > 100 µM (inactive). For the same compound, the GI50 [4] was > 100 µM (inactive), the GI50 [5] was > 100 µM (inactive) and the GI50 [6] was > 100 µM. For the same compound, the GI50 [19] was > 100 µM (inactive), the GI50 [8] was > 100 µM (inactive) and the GI50 [20] was > 100 µM (inactive). For the same compound, the GI50 [9] was > 100 µM (inactive), the GI50 [10] was > 100 µM (inactive) and the GI50 [11] was > 100 µM (inactive). The GI50 [12] was > 100 µM (inactive), the GI50 [13] was > 100 µM (inactive) and the GI50 [14] was > 100 µM (inactive). The GI50 [15] was > 100 µM (inactive), the GI50 [16] was 43.6 µM (inactive) and the GI50 [17] was > 100 µM (inactive). The GI50 [18] was > 100 µM (inactive).
